# Assay results reported in patent publication US9896659B2, “Methods, kits, and compositions for stem cell self-renewal” (STOWERS INSTITUTE FOR MEDICAL RESEARCH, priority 2011, dated 2018).
# Tests used:
# LSK Flk2^− cells [1] = experiment: 10-day culture of bone marrow MNCs with PI3K inhibitor, CHIR99021 or without insulin, expansion of LSK Flk2^− cells; assay type: cell-based, mouse; conditions: 10 days culture; 250 nM CHIR99021; NVP-BEZ235 at indicated concentrations
# [2] = tested on: lethally irradiated recipients; experiment: Limiting-dilution competitive repopulating unit (CRU) assay; assay type: in vivo, mouse; conditions: CHIR99021 versus ST media (2/0.4)
# Experimental: FIGS. 27A-C show ex vivo expansion of normal, long-term repopulating HSC. MNCs containing a known quantity of LSK Flk2^− cells were cultured for 14 days with and without CHIR99021. The cultured progeny of MNCs containing a pre-culture dosage of 0.1, 0.3 or 1.0 LSK Flk2^− cells were transplanted into lethally irradiated recipients along with 1×10^5 rescue/competitor cells (n=10 for each of 6 groups). Peripheral blood was analyzed at 16 weeks post-transplant and competitive repopulating unit (CRU) frequency was determined using L-Calc software (Stem Cell Technologies, Inc.) based on Poisson statistics (Zhang, C. C. & Lodish, H. F. Murine hematopoietic stem cells change their surface phenotype during ex vivo expansion. Blood, Vol. 105, pages 4314-4320 (2005); Miller, C. L. & Eaves, C. J. Expansion in vitro of adult murine hematopoietic stem cells with transplantable lympho-myeloid reconstituting ability. Proceedings of the National Academy of Sciences of the United States of America, Vol. 94, pages 13648-13653 (1997)). […] Peripheral blood was analyzed for percent donor repopulation at 16 weeks post-1°, 2°, and 3° transplant (upper panels) and percent mature donor-derived B, T and myeloid cells (lower panels). […]
# [3] = tested on: lethally irradiated (10 Gy) CD45.1^+ recipient mice; experiment: Transplantation of cultured sorted LSK Flk2^− cells into lethally irradiated recipients, donor engraftment; assay type: in vivo, mouse; conditions: 28-day cultures, 1000 re-sorted LSK Flk2^− cells + 2×10^5 competitor cells; peripheral blood 4 weeks post-transplant
# Description: Cells were harvested from the wells prior to transplantation by pipetting up and down several times before transferring to a fresh tube. Residual was then collected by adding more media and repeating. Cells were washed in DMEM (Invitrogen, Cat. No. 31053) without phenol red and added to the appropriate number of whole bone marrow rescue cells from a congenic donor (for 200,000 rescue cells+1,000 re-sorted LSK Flk2^− cells (FIGS. 3F-H) or the non-adherent product of 10 days culture of 100 LSK Flk2^− cultured cells (FIGS. 3I-K) per mouse as indicated). […]
# Repopulation was measured at 4 weeks post-transplant by collection of peripheral blood, red blood cell lysis, and staining of CD45.1 (recipient) compared to CD45.2 (donor) engraftment using antibodies purchased from eBiosciences (FITC conjugated CD45.2 (Cat. No. 11-0454-85) and PE-Cy5 conjugated CD45.1 (Cat. No. 15-0453-82)). […] Multi-lineage reconstitution was determined by CD3, B220 (for lymphoid) and Gr1, Mac-1 (for myeloid), as described above.
# Cells cultured for 28 days in (1) media, (2) media+BpV(pic), (3) media+CHIR99021 and (4) media+CHIR99021 (1 μM)+BpV(pic) (200 nM) were re-sorted for LSK Flk2^− cells. […] At 4 weeks post-transplant, peripheral blood was analyzed for donor (FIG. 3G) and multi-lineage (FIG. 3H) engraftment. […]
# LSK Flk2^− cells [4] = experiment: 14-day ex vivo expansion of bone marrow MNCs in ST media with or without GSK3β inhibitor, FACS; assay type: cell-based, mouse; conditions: 14-day culture of MNCs; average; FIG. 26B (250 nM CHIR99021)
# [5] = tested on: lethally irradiated recipients; experiment: Serial transplantation of cultured MNCs without rescue/competitor cells; assay type: in vivo, mouse
# Experimental: FIGS. 27A-C show ex vivo expansion of normal, long-term repopulating HSC. MNCs containing a known quantity of LSK Flk2^− cells were cultured for 14 days with and without CHIR99021. The cultured progeny of MNCs containing a pre-culture dosage of 0.1, 0.3 or 1.0 LSK Flk2^− cells were transplanted into lethally irradiated recipients along with 1×10^5 rescue/competitor cells (n=10 for each of 6 groups). Peripheral blood was analyzed at 16 weeks post-transplant and competitive repopulating unit (CRU) frequency was determined using L-Calc software (Stem Cell Technologies, Inc.) based on Poisson statistics (Zhang, C. C. & Lodish, H. F. Murine hematopoietic stem cells change their surface phenotype during ex vivo expansion. Blood, Vol. 105, pages 4314-4320 (2005); Miller, C. L. & Eaves, C. J. Expansion in vitro of adult murine hematopoietic stem cells with transplantable lympho-myeloid reconstituting ability. Proceedings of the National Academy of Sciences of the United States of America, Vol. 94, pages 13648-13653 (1997)). […] Fresh MNCs containing 5 or 500 LSK Flk2^− cells, or the progeny of MNCs containing 5 LSK Flk2^− cells cultured for 14 days with and without CHIR99021, were transplanted into lethally irradiated recipients without rescue/competitor cells. At 16-17 weeks post-transplant, bone marrow isolated from 1° recipients was transplanted into 2° recipients and, at 16-17 weeks post-secondary transplant, from 2° into 3° recipients at a dosage of 1×10^6 cells per mouse. Peripheral blood was analyzed for percent donor repopulation at 16 weeks post-1°, 2°, and 3° transplant (upper panels) and percent mature donor-derived B, T and myeloid cells (lower panels).
# For competitive repopulation assays, 1×10^5 bone marrow cells congenic with the host (CD45.1^+) were included per mouse. 100 μl of cultured cells or cells freshly isolated and quantified in the same manner were transplanted into lethally irradiated (10 Grays, single dose) Protein tyrosine phosphatase, receptor type, C (Ptprc or CD45.1) recipient mice through the tail vein using an insulin syringe (29 gauge). Mice were placed on Batril® water (Bayer Healthcare, LLC, Shawnee Mission, Kans.) 3 days prior to irradiation which continued for 2 weeks post-irradiation. Repopulation was measured every 4 weeks post-transplant by collection of peripheral blood, red blood cell lysis and staining of CD45.1 (recipient) vs. CD45.2 (donor) engraftment. […] Multi-lineage reconstitution was determined by CD3, B220 (for T and B lymphoid, respectively) and Gr1, Mac-1 (for myeloid) gating on donor (CD45.2^+) cells. […] Bone marrow cells were counted and transplanted as above at a dosage of 1×10^6 per mouse. […]
compound,measurement,setting,value
Cc1c[nH]c(-c2cnc(NCCNc3ccc(C#N)cn3)nc2-c2ccc(Cl)cc2Cl)n1 [CHIR99021],Expansion of LSK Flk2^− cells,LSK Flk2^− cells [1],increased the expansion
same,Increase of CRU frequency,[2],5 fold
same,Mice showing >1% engraftment,[3],4/8
same,Increase in total number of LSK Flk2^− cells,LSK Flk2^− cells [4],93 fold
same,"Dose of fresh, unexpanded cells giving equivalent long-term repopulation","[5]; 16 weeks post-secondary transplantation, 5 versus 500 putative HSCs",100 fold
same,Repopulation of tertiary recipients,"[5]; 16 weeks post-tertiary transplant, versus 100× uncultured cells",equivalent levels of repopulation with no statistical difference between the two groups
same,Survival of tertiary recipients,"[5]; Kaplan-Meier, FIG. 27C",survival rates similar to tertiary recipients of 100× uncultured cells
same,Donor reconstitution at 16 weeks post-secondary transplant,"[5]; secondary lethally-irradiated recipients, 1×10^6 bone marrow cells",90.6±4.8%
